From ChEMBL document CHEMBL3608296, “Synthesis of sulfonamides incorporating piperazinyl-ureido moieties and their carbonic anhydrase I, II, IX and XII inhibitory activity” (Bioorg Med Chem Lett, 2015)
pKi: −log10 of the molar value.

Molecular target: T1, Carbonic anhydrase 9 (Homo sapiens, UniProt Q16790)
Conditions: at 0.01 µM
Description: Inhibition of human carbonic anhydrase 9 at 10^-8 M preincubated for 15 mins by stopped flow CO2 hydration method relative to control

inhibition [%]	SMILES
48	NS(=O)(=O)c1ccc(NC(=O)N2CCN(C(=O)Cc3ccc(Cl)cc3Cl)CC2)cc1
45	NS(=O)(=O)c1ccc(NC(=O)N2CCN(C(=O)Cc3ccc(O)cc3)CC2)cc1
47	NS(=O)(=O)c1ccc(NC(=O)N2CCN(C(=O)COc3ccc(Cl)cc3)CC2)cc1
49	NS(=O)(=O)c1ccc(NC(=O)N2CCN(C(=O)COc3ccc(Cl)cc3Cl)CC2)cc1
45	NS(=O)(=O)c1ccc(NC(=O)N2CCN(C(=O)Cc3ccc(Cl)cc3)CC2)cc1
35	NS(=O)(=O)c1ccc(NC(=O)N2CCN(C(=O)COc3ccccc3)CC2)cc1
44	NS(=O)(=O)c1ccc(NC(=O)N2CCN(C(=O)Cc3ccccc3)CC2)cc1
41	COc1cc(CC(=O)N2CCN(C(=O)Nc3ccc(S(N)(=O)=O)cc3)CC2)cc(OC)c1O
47	COc1ccc(CC(=O)N2CCN(C(=O)Nc3ccc(S(N)(=O)=O)cc3)CC2)cc1

Molecular target: T1, Carbonic anhydrase 9
Conditions: at 0.001 µM
Description: Inhibition of human carbonic anhydrase 9 at 10^-9 M preincubated for 15 mins by stopped flow CO2 hydration method relative to control

inhibition [%]	SMILES
38	NS(=O)(=O)c1ccc(NC(=O)N2CCN(C(=O)Cc3ccc(Cl)cc3Cl)CC2)cc1
34	NS(=O)(=O)c1ccc(NC(=O)N2CCN(C(=O)Cc3ccc(O)cc3)CC2)cc1
36	NS(=O)(=O)c1ccc(NC(=O)N2CCN(C(=O)COc3ccc(Cl)cc3)CC2)cc1
33	NS(=O)(=O)c1ccc(NC(=O)N2CCN(C(=O)COc3ccc(Cl)cc3Cl)CC2)cc1
37	NS(=O)(=O)c1ccc(NC(=O)N2CCN(C(=O)Cc3ccc(Cl)cc3)CC2)cc1
22	NS(=O)(=O)c1ccc(NC(=O)N2CCN(C(=O)COc3ccccc3)CC2)cc1
38	NS(=O)(=O)c1ccc(NC(=O)N2CCN(C(=O)Cc3ccccc3)CC2)cc1
37	COc1cc(CC(=O)N2CCN(C(=O)Nc3ccc(S(N)(=O)=O)cc3)CC2)cc(OC)c1O
36	COc1ccc(CC(=O)N2CCN(C(=O)Nc3ccc(S(N)(=O)=O)cc3)CC2)cc1

Molecular target: Carbonic anhydrase 12 (Homo sapiens) (UniProt O43570)
Conditions: at 1 µM
Description: Inhibition of human carbonic anhydrase 12 at 10^-6 M preincubated for 15 mins by stopped flow CO2 hydration method relative to control

Sequence of Carbonic anhydrase 12 (Homo sapiens) (O43570 whole entry): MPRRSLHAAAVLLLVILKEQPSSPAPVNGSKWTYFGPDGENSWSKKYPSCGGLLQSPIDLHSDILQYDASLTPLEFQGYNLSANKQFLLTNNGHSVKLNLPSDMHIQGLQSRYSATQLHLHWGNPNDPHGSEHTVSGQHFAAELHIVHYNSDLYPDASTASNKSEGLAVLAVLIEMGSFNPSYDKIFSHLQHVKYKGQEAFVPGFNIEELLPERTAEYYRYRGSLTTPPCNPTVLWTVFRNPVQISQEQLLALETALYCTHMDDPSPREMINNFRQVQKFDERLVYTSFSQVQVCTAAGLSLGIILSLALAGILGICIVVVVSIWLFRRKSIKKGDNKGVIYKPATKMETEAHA

inhibition [%]	SMILES
51	NS(=O)(=O)c1ccc(NC(=O)N2CCN(C(=O)Cc3ccc(Cl)cc3Cl)CC2)cc1
58	NS(=O)(=O)c1ccc(NC(=O)N2CCN(C(=O)Cc3ccc(O)cc3)CC2)cc1
52	NS(=O)(=O)c1ccc(NC(=O)N2CCN(C(=O)COc3ccc(Cl)cc3)CC2)cc1
51	NS(=O)(=O)c1ccc(NC(=O)N2CCN(C(=O)COc3ccc(Cl)cc3Cl)CC2)cc1
51	NS(=O)(=O)c1ccc(NC(=O)N2CCN(C(=O)Cc3ccc(Cl)cc3)CC2)cc1
51	NS(=O)(=O)c1ccc(NC(=O)N2CCN(C(=O)COc3ccccc3)CC2)cc1
51	NS(=O)(=O)c1ccc(NC(=O)N2CCN(C(=O)Cc3ccccc3)CC2)cc1
51	COc1cc(CC(=O)N2CCN(C(=O)Nc3ccc(S(N)(=O)=O)cc3)CC2)cc(OC)c1O
51	COc1ccc(CC(=O)N2CCN(C(=O)Nc3ccc(S(N)(=O)=O)cc3)CC2)cc1

Molecular target: T1, Carbonic anhydrase 9
Conditions: at 0.1 µM
Description: Inhibition of human carbonic anhydrase 9 at 10^-7 M preincubated for 15 mins by stopped flow CO2 hydration method relative to control

inhibition [%]	SMILES
49	NS(=O)(=O)c1ccc(NC(=O)N2CCN(C(=O)Cc3ccc(Cl)cc3Cl)CC2)cc1
48	NS(=O)(=O)c1ccc(NC(=O)N2CCN(C(=O)Cc3ccc(O)cc3)CC2)cc1
48	NS(=O)(=O)c1ccc(NC(=O)N2CCN(C(=O)COc3ccc(Cl)cc3)CC2)cc1
51	NS(=O)(=O)c1ccc(NC(=O)N2CCN(C(=O)COc3ccc(Cl)cc3Cl)CC2)cc1
47	NS(=O)(=O)c1ccc(NC(=O)N2CCN(C(=O)Cc3ccc(Cl)cc3)CC2)cc1
53	NS(=O)(=O)c1ccc(NC(=O)N2CCN(C(=O)COc3ccccc3)CC2)cc1
49	NS(=O)(=O)c1ccc(NC(=O)N2CCN(C(=O)Cc3ccccc3)CC2)cc1
52	COc1cc(CC(=O)N2CCN(C(=O)Nc3ccc(S(N)(=O)=O)cc3)CC2)cc(OC)c1O
49	COc1ccc(CC(=O)N2CCN(C(=O)Nc3ccc(S(N)(=O)=O)cc3)CC2)cc1

Molecular target: Carbonic anhydrase 1 (Homo sapiens, UniProt P00915)
Assay: Inhibition of human carbonic anhydrase 1 preincubated for 15 mins by stopped flow CO2 hydration method
Conditions: not given

Sequence of Carbonic anhydrase 1 (P00915 whole entry): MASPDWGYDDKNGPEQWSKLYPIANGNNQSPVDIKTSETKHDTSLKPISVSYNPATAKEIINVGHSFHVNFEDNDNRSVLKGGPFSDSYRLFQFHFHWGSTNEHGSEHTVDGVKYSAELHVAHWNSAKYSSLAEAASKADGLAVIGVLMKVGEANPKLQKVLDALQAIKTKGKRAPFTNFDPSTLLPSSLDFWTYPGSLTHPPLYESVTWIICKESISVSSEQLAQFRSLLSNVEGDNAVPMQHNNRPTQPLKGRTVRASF

pKi	SMILES
< 5.00	NS(=O)(=O)c1ccc(NC(=O)N2CCN(c3ccc(Cl)cc3)CC2)cc1

Molecular target: Carbonic anhydrase 12 (Homo sapiens) (UniProt O43570)
Conditions: at 0.01 µM
Description: Inhibition of human carbonic anhydrase 12 at 10^-8 M preincubated for 15 mins by stopped flow CO2 hydration method relative to control

inhibition [%]	SMILES
42	NS(=O)(=O)c1ccc(NC(=O)N2CCN(C(=O)Cc3ccc(Cl)cc3Cl)CC2)cc1
46	NS(=O)(=O)c1ccc(NC(=O)N2CCN(C(=O)Cc3ccc(O)cc3)CC2)cc1
47	NS(=O)(=O)c1ccc(NC(=O)N2CCN(C(=O)COc3ccc(Cl)cc3)CC2)cc1
43	NS(=O)(=O)c1ccc(NC(=O)N2CCN(C(=O)COc3ccc(Cl)cc3Cl)CC2)cc1
40	NS(=O)(=O)c1ccc(NC(=O)N2CCN(C(=O)Cc3ccc(Cl)cc3)CC2)cc1
46	NS(=O)(=O)c1ccc(NC(=O)N2CCN(C(=O)COc3ccccc3)CC2)cc1
44	NS(=O)(=O)c1ccc(NC(=O)N2CCN(C(=O)Cc3ccccc3)CC2)cc1
45	COc1cc(CC(=O)N2CCN(C(=O)Nc3ccc(S(N)(=O)=O)cc3)CC2)cc(OC)c1O
46	COc1ccc(CC(=O)N2CCN(C(=O)Nc3ccc(S(N)(=O)=O)cc3)CC2)cc1

Molecular target: Carbonic anhydrase 12 (Homo sapiens) (UniProt O43570)
Conditions: at 0.1 µM
Description: Inhibition of human carbonic anhydrase 12 at 10^-7 M preincubated for 15 mins by stopped flow CO2 hydration method relative to control

inhibition [%]	SMILES
48	NS(=O)(=O)c1ccc(NC(=O)N2CCN(C(=O)Cc3ccc(Cl)cc3Cl)CC2)cc1
49	NS(=O)(=O)c1ccc(NC(=O)N2CCN(C(=O)Cc3ccc(O)cc3)CC2)cc1
49	NS(=O)(=O)c1ccc(NC(=O)N2CCN(C(=O)COc3ccc(Cl)cc3)CC2)cc1
48	NS(=O)(=O)c1ccc(NC(=O)N2CCN(C(=O)COc3ccc(Cl)cc3Cl)CC2)cc1
47	NS(=O)(=O)c1ccc(NC(=O)N2CCN(C(=O)Cc3ccc(Cl)cc3)CC2)cc1
49	NS(=O)(=O)c1ccc(NC(=O)N2CCN(C(=O)COc3ccccc3)CC2)cc1
47	NS(=O)(=O)c1ccc(NC(=O)N2CCN(C(=O)Cc3ccccc3)CC2)cc1
49	COc1cc(CC(=O)N2CCN(C(=O)Nc3ccc(S(N)(=O)=O)cc3)CC2)cc(OC)c1O
49	COc1ccc(CC(=O)N2CCN(C(=O)Nc3ccc(S(N)(=O)=O)cc3)CC2)cc1

Molecular target: T1, Carbonic anhydrase 9
Conditions: at 1 µM
Description: Inhibition of human carbonic anhydrase 9 at 10^-6 M preincubated for 15 mins by stopped flow CO2 hydration method relative to control

inhibition [%]	SMILES
54	NS(=O)(=O)c1ccc(NC(=O)N2CCN(C(=O)Cc3ccc(Cl)cc3Cl)CC2)cc1
52	NS(=O)(=O)c1ccc(NC(=O)N2CCN(C(=O)Cc3ccc(O)cc3)CC2)cc1
52	NS(=O)(=O)c1ccc(NC(=O)N2CCN(C(=O)COc3ccc(Cl)cc3)CC2)cc1
56	NS(=O)(=O)c1ccc(NC(=O)N2CCN(C(=O)COc3ccc(Cl)cc3Cl)CC2)cc1
51	NS(=O)(=O)c1ccc(NC(=O)N2CCN(C(=O)Cc3ccc(Cl)cc3)CC2)cc1
55	NS(=O)(=O)c1ccc(NC(=O)N2CCN(C(=O)COc3ccccc3)CC2)cc1
54	NS(=O)(=O)c1ccc(NC(=O)N2CCN(C(=O)Cc3ccccc3)CC2)cc1
55	COc1cc(CC(=O)N2CCN(C(=O)Nc3ccc(S(N)(=O)=O)cc3)CC2)cc(OC)c1O
55	COc1ccc(CC(=O)N2CCN(C(=O)Nc3ccc(S(N)(=O)=O)cc3)CC2)cc1

Molecular target: Carbonic anhydrase 12 (Homo sapiens) (UniProt O43570)
Conditions: at 0.001 µM
Description: Inhibition of human carbonic anhydrase 12 at 10^-9 M preincubated for 15 mins by stopped flow CO2 hydration method relative to control

inhibition [%]	SMILES
34	NS(=O)(=O)c1ccc(NC(=O)N2CCN(C(=O)Cc3ccc(Cl)cc3Cl)CC2)cc1
33	NS(=O)(=O)c1ccc(NC(=O)N2CCN(C(=O)Cc3ccc(O)cc3)CC2)cc1
30	NS(=O)(=O)c1ccc(NC(=O)N2CCN(C(=O)COc3ccc(Cl)cc3)CC2)cc1
29	NS(=O)(=O)c1ccc(NC(=O)N2CCN(C(=O)COc3ccc(Cl)cc3Cl)CC2)cc1
34	NS(=O)(=O)c1ccc(NC(=O)N2CCN(C(=O)Cc3ccc(Cl)cc3)CC2)cc1
36	NS(=O)(=O)c1ccc(NC(=O)N2CCN(C(=O)COc3ccccc3)CC2)cc1
26	NS(=O)(=O)c1ccc(NC(=O)N2CCN(C(=O)Cc3ccccc3)CC2)cc1
34	COc1cc(CC(=O)N2CCN(C(=O)Nc3ccc(S(N)(=O)=O)cc3)CC2)cc(OC)c1O
34	COc1ccc(CC(=O)N2CCN(C(=O)Nc3ccc(S(N)(=O)=O)cc3)CC2)cc1

Molecular target: T1, Carbonic anhydrase 9
Conditions: not given

pKi	SMILES
6.69	N#Cc1cccnc1N1CCN(C(=O)Nc2ccc(S(N)(=O)=O)cc2)CC1
7.40	COc1cccc(N2CCN(C(=O)Nc3ccc(S(N)(=O)=O)cc3)CC2)c1
6.63	COc1ccccc1N1CCN(C(=O)Nc2ccc(S(N)(=O)=O)cc2)CC1
6.29	NS(=O)(=O)c1ccc(NC(=O)N2CCN(c3ccc(C(F)(F)F)cn3)CC2)cc1
7.40	NS(=O)(=O)c1ccc(NC(=O)N2CCN(Cc3ccc(Cl)cc3)CC2)cc1
6.87	NS(=O)(=O)c1ccc(NC(=O)N2CCN(c3nccc(C(F)(F)F)n3)CC2)cc1
6.55	NS(=O)(=O)c1ccc(NC(=O)N2CCN(c3ncccc3C(F)(F)F)CC2)cc1
6.34	NS(=O)(=O)c1ccc(NC(=O)N2CCN(Cc3ccccc3)CC2)cc1
6.57	NS(=O)(=O)c1ccc(NC(=O)N2CCN(c3ccc(Cl)c(Cl)c3)CC2)cc1
8.00	NS(=O)(=O)c1ccc(NC(=O)N2CCN(c3ccc(F)cc3)CC2)cc1
6.31	NS(=O)(=O)c1ccc(NC(=O)N2CCN(c3ccccn3)CC2)cc1
6.63	NS(=O)(=O)c1ccc(NC(=O)N2CCN(c3cccc(Cl)c3)CC2)cc1
6.89	CC(C)(C)c1ccc(N2CCN(C(=O)Nc3ccc(S(N)(=O)=O)cc3)CC2)cc1
6.49	NS(=O)(=O)c1ccc(NC(=O)N2CCN(c3ccc(Cl)cc3)CC2)cc1

SMILES	pKi
COc1ccc(N2CCN(C(=O)Nc3ccc(S(N)(=O)=O)cc3)CC2)cc1	6.39
NS(=O)(=O)c1ccc(NC(=O)N2CCN(c3ccccc3)CC2)cc1	8.06
